Measured values: ChEMBL document CHEMBL4017512 (J Med Chem, 2017)

Legend:
HCT-116 = assay: Antiproliferative activity against human HCT116 cells after 72 hrs by phosphatase assay; type: functional, cell-based; details: HCT-116, 72 h
L1210 = assay: Antiproliferative activity against mouse L1210 cells after 72 hrs by phosphatase assay; type: functional, cell-based; details: L1210, 72 h
[1] = Cytotoxicity against human HCT116/VM46 cells assessed as reduction in cell viability after 72 hrs by phosphatase assay; type: cell-based; details: HCT-116/VM46, 72 h

Compound	IC50 (HCT-116) [nM]	IC50 (L1210) [nM]	IC50 [1] [nM]
CC[C@]1(NC(=O)c2ccccc2OC(F)(F)F)C[C@H]2CN(CCc3c([nH]c4ccccc34)[C@@](C(=O)OC)(c3cc4c(cc3OC)N(C)[C@H]3[C@@](O)(C(=O)OC)[C@H](OC(C)=O)[C@]5(CC)C=CCN6CC[C@]43[C@@H]65)C2)C1	480	450	620
CC[C@]1(NC(=O)c2ccc(C)c(NC(=O)OC(C)(C)C)c2)C[C@H]2CN(CCc3c([nH]c4ccccc34)[C@@](C(=O)OC)(c3cc4c(cc3OC)N(C)[C@H]3[C@@](O)(C(=O)OC)[C@H](OC(C)=O)[C@]5(CC)C=CCN6CC[C@]43[C@@H]65)C2)C1	7.1	6	90
CCC(=O)N[C@@]1(CC)C[C@H]2CN(CCc3c([nH]c4ccccc34)[C@@](C(=O)OC)(c3cc4c(cc3OC)N(C)[C@H]3[C@@](O)(C(=O)OC)[C@H](OC(C)=O)[C@]5(CC)C=CCN6CC[C@]43[C@@H]65)C2)C1	60	60	2100
C=CC(=O)N[C@@]1(CC)C[C@H]2CN(CCc3c([nH]c4ccccc34)[C@@](C(=O)OC)(c3cc4c(cc3OC)N(C)[C@H]3[C@@](O)(C(=O)OC)[C@H](OC(C)=O)[C@]5(CC)C=CCN6CC[C@]43[C@@H]65)C2)C1	6	7	520
CC[C@]1(NC(=O)c2ccc3ccoc3c2)C[C@H]2CN(CCc3c([nH]c4ccccc34)[C@@](C(=O)OC)(c3cc4c(cc3OC)N(C)[C@H]3[C@@](O)(C(=O)OC)[C@H](OC(C)=O)[C@]5(CC)C=CCN6CC[C@]43[C@@H]65)C2)C1	2.2	3.3	6.5
CCOc1ccc(C(=O)N[C@@]2(CC)C[C@H]3CN(CCc4c([nH]c5ccccc45)[C@@](C(=O)OC)(c4cc5c(cc4OC)N(C)[C@H]4[C@@](O)(C(=O)OC)[C@H](OC(C)=O)[C@]6(CC)C=CCN7CC[C@]54[C@@H]76)C3)C2)cc1	0.6	0.6	2.8
CC[C@]1(O)C[C@H]2CN(CCc3c([nH]c4ccc(F)cc34)[C@@](C(=O)OC)(c3cc4c(cc3OC)N(C)[C@H]3[C@@](O)(C(=O)OC)[C@H](OC(C)=O)[C@]5(CC)C=CCN6CC[C@]43[C@@H]65)C2)C1	0.7	0.6	30
CC[C@]1(NC(=O)c2csc3ccccc23)C[C@H]2CN(CCc3c([nH]c4ccccc34)[C@@](C(=O)OC)(c3cc4c(cc3OC)N(C)[C@H]3[C@@](O)(C(=O)OC)[C@H](OC(C)=O)[C@]5(CC)C=CCN6CC[C@]43[C@@H]65)C2)C1	5.7	5.2	20
CC[C@]1(NC(=O)C2CCSCC2)C[C@H]2CN(CCc3c([nH]c4ccccc34)[C@@](C(=O)OC)(c3cc4c(cc3OC)N(C)[C@H]3[C@@](O)(C(=O)OC)[C@H](OC(C)=O)[C@]5(CC)C=CCN6CC[C@]43[C@@H]65)C2)C1	450	460	5200
CC[C@]1(NC(=O)C2CCN(C(=O)OC(C)(C)C)CC2)C[C@H]2CN(CCc3c([nH]c4ccccc34)[C@@](C(=O)OC)(c3cc4c(cc3OC)N(C)[C@H]3[C@@](O)(C(=O)OC)[C@H](OC(C)=O)[C@]5(CC)C=CCN6CC[C@]43[C@@H]65)C2)C1	45	50	500
CC[C@]1(NC(=O)c2ccc(F)cc2)C[C@H]2CN(CCc3c([nH]c4ccccc34)[C@@](C(=O)OC)(c3cc4c(cc3OC)N(C)[C@H]3[C@@](O)(C(=O)OC)[C@H](OC(C)=O)[C@]5(CC)C=CCN6CC[C@]43[C@@H]65)C2)C1	1.4	1.8	25
CCCCCCCC(=O)N[C@@]1(CC)C[C@H]2CN(CCc3c([nH]c4ccccc34)[C@@](C(=O)OC)(c3cc4c(cc3OC)N(C)[C@H]3[C@@](O)(C(=O)OC)[C@H](OC(C)=O)[C@]5(CC)C=CCN6CC[C@]43[C@@H]65)C2)C1	60	50	420
CC[C@]1(NC(=O)c2cccs2)C[C@H]2CN(CCc3c([nH]c4ccccc34)[C@@](C(=O)OC)(c3cc4c(cc3OC)N(C)[C@H]3[C@@](O)(C(=O)OC)[C@H](OC(C)=O)[C@]5(CC)C=CCN6CC[C@]43[C@@H]65)C2)C1	0.6	0.6	6.7
CC[C@]1(NS(=O)(=O)c2ccccc2)C[C@H]2CN(CCc3c([nH]c4ccccc34)[C@@](C(=O)OC)(c3cc4c(cc3OC)N(C)[C@H]3[C@@](O)(C(=O)OC)[C@H](OC(C)=O)[C@]5(CC)C=CCN6CC[C@]43[C@@H]65)C2)C1	50	45	680
CC[C@]1(NC(=O)c2cnc3ccccc3n2)C[C@H]2CN(CCc3c([nH]c4ccccc34)[C@@](C(=O)OC)(c3cc4c(cc3OC)N(C)[C@H]3[C@@](O)(C(=O)OC)[C@H](OC(C)=O)[C@]5(CC)C=CCN6CC[C@]43[C@@H]65)C2)C1	5.9	6.2	60
CC[C@]1(NC(=O)c2ccc3c(c2)CCO3)C[C@H]2CN(CCc3c([nH]c4ccccc34)[C@@](C(=O)OC)(c3cc4c(cc3OC)N(C)[C@H]3[C@@](O)(C(=O)OC)[C@H](OC(C)=O)[C@]5(CC)C=CCN6CC[C@]43[C@@H]65)C2)C1	0.25	0.3	2.4
CC[C@]1(NC(=O)C(c2ccccc2)c2ccccc2)C[C@H]2CN(CCc3c([nH]c4ccccc34)[C@@](C(=O)OC)(c3cc4c(cc3OC)N(C)[C@H]3[C@@](O)(C(=O)OC)[C@H](OC(C)=O)[C@]5(CC)C=CCN6CC[C@]43[C@@H]65)C2)C1	3800	760	5100
CC[C@]1(NC(=O)c2cccc(C)c2)C[C@H]2CN(CCc3c([nH]c4ccccc34)[C@@](C(=O)OC)(c3cc4c(cc3OC)N(C)[C@H]3[C@@](O)(C(=O)OC)[C@H](OC(C)=O)[C@]5(CC)C=CCN6CC[C@]43[C@@H]65)C2)C1	0.7	0.5	3
CCc1ccc(C(=O)N[C@@]2(CC)C[C@H]3CN(CCc4c([nH]c5ccccc45)[C@@](C(=O)OC)(c4cc5c(cc4OC)N(C)[C@H]4[C@@](O)(C(=O)OC)[C@H](OC(C)=O)[C@]6(CC)C=CCN7CC[C@]54[C@@H]76)C3)C2)cc1	0.7	0.65	3.4
CC[C@]1(NC(=O)c2ccc3c(c2)CCCC3)C[C@H]2CN(CCc3c([nH]c4ccc(F)cc34)[C@@](C(=O)OC)(c3cc4c(cc3OC)N(C)[C@H]3[C@@](O)(C(=O)OC)[C@H](OC(C)=O)[C@]5(CC)C=CCN6CC[C@]43[C@@H]65)C2)C1	6.2	5	19
CC[C@]1(NC(=O)c2ccc3ncsc3c2)C[C@H]2CN(CCc3c([nH]c4ccccc34)[C@@](C(=O)OC)(c3cc4c(cc3OC)N(C)[C@H]3[C@@](O)(C(=O)OC)[C@H](OC(C)=O)[C@]5(CC)C=CCN6CC[C@]43[C@@H]65)C2)C1	0.6	0.5	20
CC[C@]1(NC(=O)c2ccc([N+](=O)[O-])cc2)C[C@H]2CN(CCc3c([nH]c4ccccc34)[C@@](C(=O)OC)(c3cc4c(cc3OC)N(C)[C@H]3[C@@](O)(C(=O)OC)[C@H](OC(C)=O)[C@]5(CC)C=CCN6CC[C@]43[C@@H]65)C2)C1	6.1	6.1	60
CC[C@]1(NC(=O)c2ccc(OC)cc2F)C[C@H]2CN(CCc3c([nH]c4ccccc34)[C@@](C(=O)OC)(c3cc4c(cc3OC)N(C)[C@H]3[C@@](O)(C(=O)OC)[C@H](OC(C)=O)[C@]5(CC)C=CCN6CC[C@]43[C@@H]65)C2)C1	6.4	6.2	70
CCOc1ccc(C(=O)N[C@@]2(CC)C[C@H]3CN(CCc4c([nH]c5ccccc45)[C@@](C(=O)OC)(c4cc5c(cc4OC)N(C)[C@H]4[C@@](O)(C(=O)OC)[C@H](OC(C)=O)[C@]6(CC)C=CCN7CC[C@]54[C@@H]76)C3)C2)cc1OCC	0.5	0.4	6
CC[C@]1(NC(=O)c2ccccc2C)C[C@H]2CN(CCc3c([nH]c4ccccc34)[C@@](C(=O)OC)(c3cc4c(cc3OC)N(C)[C@H]3[C@@](O)(C(=O)OC)[C@H](OC(C)=O)[C@]5(CC)C=CCN6CC[C@]43[C@@H]65)C2)C1	50	55	540
CC[C@]1(NC(=O)C2CC2)C[C@H]2CN(CCc3c([nH]c4ccccc34)[C@@](C(=O)OC)(c3cc4c(cc3OC)N(C)[C@H]3[C@@](O)(C(=O)OC)[C@H](OC(C)=O)[C@]5(CC)C=CCN6CC[C@]43[C@@H]65)C2)C1	6.1	5.5	95
CC[C@]1(NC(=O)c2ccc(OC)c(C)c2)C[C@H]2CN(CCc3c([nH]c4ccccc34)[C@@](C(=O)OC)(c3cc4c(cc3OC)N(C)[C@H]3[C@@](O)(C(=O)OC)[C@H](OC(C)=O)[C@]5(CC)C=CCN6CC[C@]43[C@@H]65)C2)C1	0.7	0.6	5.2
CC[C@]1(NC(=O)C2CCc3ccccc3C2)C[C@H]2CN(CCc3c([nH]c4ccccc34)[C@@](C(=O)OC)(c3cc4c(cc3OC)N(C)[C@H]3[C@@](O)(C(=O)OC)[C@H](OC(C)=O)[C@]5(CC)C=CCN6CC[C@]43[C@@H]65)C2)C1 (stereo not given in full)	580	420	960
CC[C@]1(NC(=O)c2ccc3ccsc3c2)C[C@H]2CN(CCc3c([nH]c4ccccc34)[C@@](C(=O)OC)(c3cc4c(cc3OC)N(C)[C@H]3[C@@](O)(C(=O)OC)[C@H](OC(C)=O)[C@]5(CC)C=CCN6CC[C@]43[C@@H]65)C2)C1	2.9	3.1	7.7
CCCCCC(=O)N[C@@]1(CC)C[C@H]2CN(CCc3c([nH]c4ccccc34)[C@@](C(=O)OC)(c3cc4c(cc3OC)N(C)[C@H]3[C@@](O)(C(=O)OC)[C@H](OC(C)=O)[C@]5(CC)C=CCN6CC[C@]43[C@@H]65)C2)C1	40	55	450
